Test results reported in publication PMC10201369, “An asymmetric structure of bacterial TrpRS supports the half-of-the-sites catalytic mechanism and facilitates antimicrobial screening” (Nucleic Acids Research, 2023).

Columns and labels:
EcTrpRS [1] = target: T1, EcTrpRS (Escherichia coli, UniProt P00954); assay: ITC, one-site model; type: binding
T1 construct: gene trpS; full-length (domains span residues 1-334), C-terminal His6 tag, pET20b(+), E. coli BL21(DE3); homodimer, as purified carries one copurified TrpAMP per dimer

SaTrpRS = target: T2, SaTrpRS (Staphylococcus aureus, UniProt P67593); assay: ITC, one-site model; type: binding; conditions: PBS, 15 °C
T2 construct: gene trpS; residues 1-329, expressed and purified similarly to EcTrpRS (His-tagged, E. coli BL21(DE3))

EcTrpRS [2] = target: T1, EcTrpRS; assay: ATP consumption assay (Kinase-Glo), tRNA-dependent; type: biochemical
EcTrpRS [3] = target: T1, EcTrpRS; assay: ITC, one-site model; cocrystal structure; type: binding; conditions: PBS, 15 °C
EcTrpRS [4] = target: T1, EcTrpRS; assay: crystal structure, copurified; type: binding; conditions: intermediate product in active site of closed subunit; 1.80 Å

T2 sequence (P67593 whole entry, the tested form may be a part): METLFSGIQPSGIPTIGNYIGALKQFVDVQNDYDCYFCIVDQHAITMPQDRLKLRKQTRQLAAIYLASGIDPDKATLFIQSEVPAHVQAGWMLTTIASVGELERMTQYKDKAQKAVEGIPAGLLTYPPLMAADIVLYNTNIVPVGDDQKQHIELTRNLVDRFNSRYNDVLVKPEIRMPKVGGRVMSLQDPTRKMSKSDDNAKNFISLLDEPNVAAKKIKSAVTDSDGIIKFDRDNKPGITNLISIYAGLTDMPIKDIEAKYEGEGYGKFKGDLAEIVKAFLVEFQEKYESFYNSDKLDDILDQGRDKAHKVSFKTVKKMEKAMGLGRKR

Nc1ncnc2c1ncn2[C@@H]1O[C@H](COP(=O)(O)OP(=O)(O)OP(=O)(O)O)[C@@H](O)[C@H]1O [ATP]
Kd (EcTrpRS [1]): 305 ± 49.9 µM

NC(=O)c1cccc2cn(-c3ccc([C@@H]4CCCNC4)cc3)nc12 [niraparib]
Kd (SaTrpRS): ~ around 20 μM
IC50 (EcTrpRS [2]): 148 µM
Kd (EcTrpRS [3]; L-Trp site of the open subunit, blocked by high L-Trp): ~ around 20 μM

Nc1ncnc2c1ncn2[C@@H]1O[C@H](COP(=O)(O)OC(=O)[C@@H](N)Cc2c[nH]c3ccccc23)[C@@H](O)[C@H]1O [TrpAMP]
crystal structure, copurified (EcTrpRS [4]): A copurified tryptophanyl adenylate (TrpAMP)

N[C@@H](Cc1c[nH]c2ccccc12)C(=O)O [L-Trp]
Kd (EcTrpRS [3]; measured for open-closed (one TrpAMP bound) and apo open-open enzyme, active site of open subunit): ITC measurements of L-Trp to ‘open-closed’ asymmetric EcTrpRS and ‘open-open’ apo EcTrpRS showed similar binding
